# Source: patent US8178077B2, “Drug development target protein and target gene, and method of screening” (Reverse Proteomics Research Institute Co., Ltd., priority 2004, dated 2012)
# Biological target: T1, FLJ39196 clone-derived protein (human neurocalcin δ) (Homo sapiens, UniProt P61601)
# T1 construct: A human full-length cDNA clone was expressed as a protein with an N-terminal His tag; His tag (N); made in house; host or cells: Escherichia coli BL21star(DE3)pLysS (pDEST17 Gateway expression plasmid)
# Assay: SEC/MS interaction analysis (size exclusion spin column and mass analysis) with FLJ39196 clone-derived protein
# Format: binding
# Description: To analyze the interactions between commonly used drugs and proteins expressed from human full-length cDNA clones while keeping both the proteins and the compounds in non-modified, non-immobilized state, size exclusion chromatography (SEC) and mass analysis were used in combination (FIGS. 1, 2). The specific procedures are shown below.
# The compound-protein mixture prepared in step 1 was subjected to chromatography using an SEC column, the compound and the protein were separated by SEC, and the compound that interacted with the bound compound or protein contained in the protein fraction was analyzed using a mass analyzer.
# Protein concentrations were measured using BCA Protein Assay (PIERCE), in consideration of the purity calculated by SDS-PAGE.
# Mass analysis was performed using LCQ DECA XP (Thermoelectron) or Q-TOFmicro (Micromass), equipped with an ESI probe. The LC pump used was Agilent 1100 (Yokogawa Analytical Systems), and the autosampler used was HTC-PAL (CTC Analytics) equipped with a cooling stacker.
# In the SEC method using 384-well spin columns, Unifilter 100 (Whatman), packed with 10 μL (dry volume) of Bio-Gel P6 (BIO-RAD) and swollen with milliQ water, was used as the SEC column. 13.3 μL of a protein-free reference standard or a 25 μM protein standard and 0.7 μL of a multiplied liquid comprising 25 μM of each pharmaceutical compound (5% DMSO aqueous solution) were mixed; 9 μL of this mixture was aliquoted into the SEC spin columns. The SEC spin column was mounted on an acetonitrile-aliquoted 384-well U-bottom plate and centrifuged; the SEC spin column filtrate, which is a protein fraction, was retrieved in 50% acetonitrile. The protein precipitate produced by the acetonitrile was removed via centrifugation and filtration for deproteinization; the resulting filtrate was concentrated by centrifugation and re-dissolved in 10 μL of 50% methanol to obtain a mass analysis sample. The mobile phase supplied to the mass analyzer was 0.1% formic acid/50% methanol solution in the positive ion mode, and 0.1% ammonia/50% methanol solution in the negative ion mode; these mobile phases were used at a flow rate of 40 μL/min. 2-μL of mass analysis samples were injected using an autosampler at 2-minute intervals; the mass spectral intensity of the compound was measured to obtain the spectral intensity of the pharmaceutical compound contained in the SEC spin column filtrate (protein fraction eluted from SEC).
# [1] = protein 0 μM (protein-free reference), compound 1 μM
# [2] = protein 0 μM (protein-free reference), compound 10 μM
# [3] = protein 0 μM (protein-free reference), compound 100 μM
# [4] = protein 0 μM (protein-free reference), compound 250 μM
# [5] = protein 23.75 μM, compound 1 μM
# [6] = protein 23.75 μM, compound 10 μM
# [7] = protein 23.75 μM, compound 100 μM
# [8] = protein 23.75 μM, compound 250 μM
# [9] = protein 47.5 μM, compound 10 μM
# [10] = protein 47.5 μM, compound 100 μM
# [11] = protein 47.5 μM, compound 250 μM
molecule,measurement,setting,value
CN(C)CC/C=C1/c2ccccc2Sc2ccc(Cl)cc21 [Chlorprothixene],spectral intensity of the compound in the SEC spin column filtrate (protein fraction),[1],12908294
same,spectral intensity of the compound in the SEC spin column filtrate (protein fraction),[2],15368592
same,spectral intensity of the compound in the SEC spin column filtrate (protein fraction),[3],30558420
same,spectral intensity of the compound in the SEC spin column filtrate (protein fraction),[4],80321853
same,spectral intensity of the compound in the SEC spin column filtrate (protein fraction),[5],21615977
same,spectral intensity of the compound in the SEC spin column filtrate (protein fraction),[6],31548696
same,spectral intensity of the compound in the SEC spin column filtrate (protein fraction),[7],104338961
same,spectral intensity of the compound in the SEC spin column filtrate (protein fraction),[8],243359670
same,spectral intensity of the compound in the SEC spin column filtrate (protein fraction),"protein 47.5 μM, compound 1 μM",25013147
same,spectral intensity of the compound in the SEC spin column filtrate (protein fraction),[9],52145413
same,spectral intensity of the compound in the SEC spin column filtrate (protein fraction),[10],207034486
same,spectral intensity of the compound in the SEC spin column filtrate (protein fraction),[11],433637183
Dihydroergotoxine mesylate,spectral intensity of the compound in the SEC spin column filtrate (protein fraction),"measured mass range m/z 564.1-565.1, protein 0 μM (protein-free reference), compound 1 μM",25150786
same,spectral intensity of the compound in the SEC spin column filtrate (protein fraction),"measured mass range m/z 564.1-565.1, protein 0 μM (protein-free reference), compound 10 μM",29311635
same,spectral intensity of the compound in the SEC spin column filtrate (protein fraction),"measured mass range m/z 564.1-565.1, protein 0 μM (protein-free reference), compound 100 μM",76261189
same,spectral intensity of the compound in the SEC spin column filtrate (protein fraction),"measured mass range m/z 564.1-565.1, protein 0 μM (protein-free reference), compound 250 μM",326128137
same,spectral intensity of the compound in the SEC spin column filtrate (protein fraction),"measured mass range m/z 564.1-565.1, protein 23.75 μM, compound 1 μM",19680823
same,spectral intensity of the compound in the SEC spin column filtrate (protein fraction),"measured mass range m/z 564.1-565.1, protein 23.75 μM, compound 10 μM",36914079
same,spectral intensity of the compound in the SEC spin column filtrate (protein fraction),"measured mass range m/z 564.1-565.1, protein 23.75 μM, compound 100 μM",177369018
same,spectral intensity of the compound in the SEC spin column filtrate (protein fraction),"measured mass range m/z 564.1-565.1, protein 23.75 μM, compound 250 μM",232715490
same,spectral intensity of the compound in the SEC spin column filtrate (protein fraction),"measured mass range m/z 564.1-565.1, protein 47.5 μM, compound 1 μM",16556794
same,spectral intensity of the compound in the SEC spin column filtrate (protein fraction),"measured mass range m/z 564.1-565.1, protein 47.5 μM, compound 10 μM",45033425
same,spectral intensity of the compound in the SEC spin column filtrate (protein fraction),"measured mass range m/z 564.1-565.1, protein 47.5 μM, compound 100 μM",221983211
same,spectral intensity of the compound in the SEC spin column filtrate (protein fraction),"measured mass range m/z 564.1-565.1, protein 47.5 μM, compound 250 μM",530510575
same,spectral intensity of the compound in the SEC spin column filtrate (protein fraction),"measured mass range m/z 577.9-578.9, protein 0 μM (protein-free reference), compound 1 μM",17036968
same,spectral intensity of the compound in the SEC spin column filtrate (protein fraction),"measured mass range m/z 577.9-578.9, protein 0 μM (protein-free reference), compound 10 μM",25343556
same,spectral intensity of the compound in the SEC spin column filtrate (protein fraction),"measured mass range m/z 577.9-578.9, protein 0 μM (protein-free reference), compound 100 μM",62894601
same,spectral intensity of the compound in the SEC spin column filtrate (protein fraction),"measured mass range m/z 577.9-578.9, protein 0 μM (protein-free reference), compound 250 μM",234871658
same,spectral intensity of the compound in the SEC spin column filtrate (protein fraction),"measured mass range m/z 577.9-578.9, protein 23.75 μM, compound 1 μM",25890358
same,spectral intensity of the compound in the SEC spin column filtrate (protein fraction),"measured mass range m/z 577.9-578.9, protein 23.75 μM, compound 100 μM",421344902
same,spectral intensity of the compound in the SEC spin column filtrate (protein fraction),"measured mass range m/z 577.9-578.9, protein 23.75 μM, compound 250 μM",408003600
same,spectral intensity of the compound in the SEC spin column filtrate (protein fraction),"measured mass range m/z 577.9-578.9, protein 47.5 μM, compound 1 μM",31988946
same,spectral intensity of the compound in the SEC spin column filtrate (protein fraction),"measured mass range m/z 577.9-578.9, protein 47.5 μM, compound 10 μM",207450982
same,spectral intensity of the compound in the SEC spin column filtrate (protein fraction),"measured mass range m/z 577.9-578.9, protein 47.5 μM, compound 100 μM",908698063
same,spectral intensity of the compound in the SEC spin column filtrate (protein fraction),"measured mass range m/z 577.9-578.9, protein 47.5 μM, compound 250 μM",1265975868
same,spectral intensity of the compound in the SEC spin column filtrate (protein fraction),"measured mass range m/z 611.7-612.7, protein 0 μM (protein-free reference), compound 1 μM",18486648
same,spectral intensity of the compound in the SEC spin column filtrate (protein fraction),"measured mass range m/z 611.7-612.7, protein 0 μM (protein-free reference), compound 10 μM",24024699
same,spectral intensity of the compound in the SEC spin column filtrate (protein fraction),"measured mass range m/z 611.7-612.7, protein 0 μM (protein-free reference), compound 100 μM",30737736
same,spectral intensity of the compound in the SEC spin column filtrate (protein fraction),"measured mass range m/z 611.7-612.7, protein 0 μM (protein-free reference), compound 250 μM",58888872
same,spectral intensity of the compound in the SEC spin column filtrate (protein fraction),"measured mass range m/z 611.7-612.7, protein 23.75 μM, compound 1 μM",35126832
same,spectral intensity of the compound in the SEC spin column filtrate (protein fraction),"measured mass range m/z 611.7-612.7, protein 23.75 μM, compound 10 μM",106708813
same,spectral intensity of the compound in the SEC spin column filtrate (protein fraction),"measured mass range m/z 611.7-612.7, protein 23.75 μM, compound 100 μM",397014202
same,spectral intensity of the compound in the SEC spin column filtrate (protein fraction),"measured mass range m/z 611.7-612.7, protein 23.75 μM, compound 250 μM",267260198
same,spectral intensity of the compound in the SEC spin column filtrate (protein fraction),"measured mass range m/z 611.7-612.7, protein 47.5 μM, compound 1 μM",40595551
same,spectral intensity of the compound in the SEC spin column filtrate (protein fraction),"measured mass range m/z 611.7-612.7, protein 47.5 μM, compound 10 μM",194133547
same,spectral intensity of the compound in the SEC spin column filtrate (protein fraction),"measured mass range m/z 611.7-612.7, protein 47.5 μM, compound 100 μM",931095764
same,spectral intensity of the compound in the SEC spin column filtrate (protein fraction),"measured mass range m/z 611.7-612.7, protein 47.5 μM, compound 250 μM",1112309560
CC(NCCC(c1ccccc1)c1ccccc1)c1ccccc1 (centres unmarked) [Fendiline],spectral intensity of the compound in the SEC spin column filtrate (protein fraction),[1],18341826
same,spectral intensity of the compound in the SEC spin column filtrate (protein fraction),[2],21106520
same,spectral intensity of the compound in the SEC spin column filtrate (protein fraction),[3],134902492
same,spectral intensity of the compound in the SEC spin column filtrate (protein fraction),[4],315067466
same,spectral intensity of the compound in the SEC spin column filtrate (protein fraction),[5],15884361
same,spectral intensity of the compound in the SEC spin column filtrate (protein fraction),[6],18323956
same,spectral intensity of the compound in the SEC spin column filtrate (protein fraction),[7],118321460
same,spectral intensity of the compound in the SEC spin column filtrate (protein fraction),[8],396979100
same,spectral intensity of the compound in the SEC spin column filtrate (protein fraction),"protein 47.5 μM, compound 1 μM",24572438
same,spectral intensity of the compound in the SEC spin column filtrate (protein fraction),[9],26691498
same,spectral intensity of the compound in the SEC spin column filtrate (protein fraction),[10],256481478
same,spectral intensity of the compound in the SEC spin column filtrate (protein fraction),[11],565679716
COC(=O)[C@H]1[C@H]2C[C@@H]3c4[nH]c5cc(OC)ccc5c4CCN3C[C@H]2C[C@@H](OC(=O)/C=C/c2cc(OC)c(OC)c(OC)c2)[C@@H]1OC [Rescinnamine],spectral intensity of the compound in the SEC spin column filtrate (protein fraction),[1],9843174
same,spectral intensity of the compound in the SEC spin column filtrate (protein fraction),[2],6544896
same,spectral intensity of the compound in the SEC spin column filtrate (protein fraction),[3],12903374
same,spectral intensity of the compound in the SEC spin column filtrate (protein fraction),[4],7315419
same,spectral intensity of the compound in the SEC spin column filtrate (protein fraction),[5],11269941
same,spectral intensity of the compound in the SEC spin column filtrate (protein fraction),[6],21895843
same,spectral intensity of the compound in the SEC spin column filtrate (protein fraction),[7],215933519
same,spectral intensity of the compound in the SEC spin column filtrate (protein fraction),[8],288844471
same,spectral intensity of the compound in the SEC spin column filtrate (protein fraction),"protein 47.5 μM, compound 1 μM",17653515
same,spectral intensity of the compound in the SEC spin column filtrate (protein fraction),[9],40677751
same,spectral intensity of the compound in the SEC spin column filtrate (protein fraction),[10],675671326
same,spectral intensity of the compound in the SEC spin column filtrate (protein fraction),[11],1469409087
